Test results published in patent US5635510A, “Substituted pyrrolidin-3-yl-alkyl-piperidines” (Merrell Pharmaceuticals Inc., priority 1994, dated 1997).

Tests used:
NK-3 receptor = biological target: T1, NK-3 receptor (Cavia porcellus, UniProt P30098); assay: Antagonism of iodinated eledoisin binding to NK3 receptor, guinea pig cerebral cortex; settings: NK-3 IC50, guinea pig cerebral cortex, 125I-eledoisin, mean of several experiments
T1 construct: evaluated in freshly collected guinea pig cerebral cortex; from tissue; host or cells: guinea pig cerebral cortex
T1 sequence (P30098 1-440): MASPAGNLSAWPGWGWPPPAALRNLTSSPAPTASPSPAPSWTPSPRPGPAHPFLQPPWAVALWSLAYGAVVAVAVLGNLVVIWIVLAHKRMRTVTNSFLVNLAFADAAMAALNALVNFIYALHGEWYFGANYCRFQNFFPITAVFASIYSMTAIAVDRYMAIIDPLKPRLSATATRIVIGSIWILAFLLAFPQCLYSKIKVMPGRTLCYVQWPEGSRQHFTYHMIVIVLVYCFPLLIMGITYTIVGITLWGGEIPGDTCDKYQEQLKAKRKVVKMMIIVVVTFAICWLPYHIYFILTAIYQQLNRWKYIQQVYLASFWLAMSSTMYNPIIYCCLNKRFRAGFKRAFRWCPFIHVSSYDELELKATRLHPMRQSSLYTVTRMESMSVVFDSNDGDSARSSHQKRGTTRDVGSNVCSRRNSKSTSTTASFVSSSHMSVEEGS
Procedure: (§1) ANTAGONISM OF IODINATED TACHYKININ BINDING TO NK1 AND NK2
(§2) RECEPTORS BY PUTATIVE ANTAGONISTS
The NK1 receptor affinity of proposed tachykinin antagonists was evaluated in guinea pig lungs (Keystone Biologicals, Cleveland, OH), affinity for the NK2 receptor evaluated in HSKR-1 cells (which are mouse 3T3 fibroblasts expressing the human jejunal NK2 receptor) and NK-3 receptor affinity was evaluated in freshly collected guinea pig cerebral cortex. Tissues or cells were homogenized with a Polytron in 15 volumes of 50 mM Tris-HCl buffer (pH 7.4, 4° C.) and centrifuged. The pellet was resuspended in Tris-HCl buffer and was centrifuged; the pellet was washed twice by resuspension. The final pellet was resuspended at a concentration of 40 mg/ml for tissues (guinea pig lung and cerebral cortex) and 20 mg/ml for cells in incubation buffer and remained at room temperature for at least 15 min prior to use. Receptor binding was initiated by addition of 250 ul membrane preparation in duplicate to 0.1 nM of the following radioligands: ^125 I-Bolton Hunter Lys-3 labeled substance P; ^125 iodohistidyl-1-neurokinin A; and ^125 I-Bolton Hunter labeled Lys-4 eledoisin in a final volume of 500 ul of buffer containing 50 mM Tris-HCl (pH 7.4 at room temperature), 0.1% bovine serum albumin, 2 mM MnCl2, 40 ug/ml bacitracin, 4 μg/ml leupeptin and chymostatin, 1 μM thiorphan and various doses of the putative tachykinin antagonists. Incubations were performed at room temperature for 90 min (NK1 receptor assays) or 2 hr (NK2 and NK3 receptor assays); binding was terminated by addition of 50 mM Tris-HCl buffer (pH 7.4, 4° C.) and filtration under vacuum through GF/B filters presoaked with 0.1% polyethyleneimine (NK1 receptor assays) or 0.5% bovine serum albumin (NK2 and NK3 receptor assays). Filter bound radioactivity was quantitated in a gamma counter. […] Specific binding was calculated by subtracting nonspecific binding from total binding. Competition of iodinated SP, NKA, or eledoisin binding by test compounds or standards was expressed as a percentage of this maximum competition. […]

NK1 receptor = biological target: T2, NK1 receptor (Cavia porcellus, UniProt P30547); assay: Antagonism of iodinated substance P binding to NK1 receptor, guinea pig lung; settings: NK-1 IC50, guinea pig lung, 125I-substance P, mean of several experiments
T2 construct: evaluated in guinea pig lungs; tissue Keystone Biologicals, Cleveland, OH; host or cells: guinea pig lung
T2 sequence (P30547 whole entry): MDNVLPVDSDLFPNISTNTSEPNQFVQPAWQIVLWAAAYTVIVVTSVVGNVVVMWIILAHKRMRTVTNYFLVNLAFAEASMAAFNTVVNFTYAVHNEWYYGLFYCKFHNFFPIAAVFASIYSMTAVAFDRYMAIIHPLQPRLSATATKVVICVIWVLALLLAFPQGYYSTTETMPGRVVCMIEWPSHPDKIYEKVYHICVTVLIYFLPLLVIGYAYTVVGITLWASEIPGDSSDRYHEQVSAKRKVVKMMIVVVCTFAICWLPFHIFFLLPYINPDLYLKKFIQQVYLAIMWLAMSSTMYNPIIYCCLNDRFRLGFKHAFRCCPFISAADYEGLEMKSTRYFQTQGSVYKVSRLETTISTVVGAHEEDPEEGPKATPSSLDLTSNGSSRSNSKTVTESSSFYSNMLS
Procedure: as §1, §2
(§3) The NK1 receptor affinity of proposed tachykinin antagonists was evaluated in guinea pig lungs (Keystone Biologicals, Cleveland, OH), affinity for the NK2 receptor evaluated in HSKR-1 cells (which are mouse 3T3 fibroblasts expressing the human jejunal NK2 receptor) and NK-3 receptor affinity was evaluated in freshly collected guinea pig cerebral cortex. Tissues or cells were homogenized with a Polytron in 15 volumes of 50 mM Tris-HCl buffer (pH 7.4, 4° C.) and centrifuged. The pellet was resuspended in Tris-HCl buffer and was centrifuged; the pellet was washed twice by resuspension. The final pellet was resuspended at a concentration of 40 mg/ml for tissues (guinea pig lung and cerebral cortex) and 20 mg/ml for cells in incubation buffer and remained at room temperature for at least 15 min prior to use. Receptor binding was initiated by addition of 250 ul membrane preparation in duplicate to 0.1 nM of the following radioligands: ^125 I-Bolton Hunter Lys-3 labeled substance P; ^125 iodohistidyl-1-neurokinin A; and ^125 I-Bolton Hunter labeled Lys-4 eledoisin in a final volume of 500 ul of buffer containing 50 mM Tris-HCl (pH 7.4 at room temperature), 0.1% bovine serum albumin, 2 mM MnCl2, 40 ug/ml bacitracin, 4 μg/ml leupeptin and chymostatin, 1 μM thiorphan and various doses of the putative tachykinin antagonists. Incubations were performed at room temperature for 90 min (NK1 receptor assays) or 2 hr (NK2 and NK3 receptor assays); binding was terminated by addition of 50 mM Tris-HCl buffer (pH 7.4, 4° C.) and filtration under vacuum through GF/B filters presoaked with 0.1% polyethyleneimine (NK1 receptor assays) or 0.5% bovine serum albumin (NK2 and NK3 receptor assays). Filter bound radioactivity was quantitated in a gamma counter. Nonspecific binding was defined as binding in the presence of 1 μM substance P, neurokinin A, or eledoisin. Specific binding was calculated by subtracting nonspecific binding from total binding. Competition of iodinated SP, NKA, or eledoisin binding by test compounds or standards was expressed as a percentage of this maximum competition. IC50 values (concentration required to inhibit 50% of receptor binding) were generated for each of the test compounds by nonlinear regression using an iterative curve fitting program (GraphPAD Inplot, San Diego, Calif.).

[1] = biological target: T3, human jejunal NK2 receptor (Homo sapiens, UniProt P21452); assay: Antagonism of iodinated neurokinin A binding to NK2 receptor, HSKR-1 cells (mouse 3T3 fibroblasts expressing the human jejunal NK2 receptor); settings: NK-2 IC50, HSKR-1 cells, 125I-neurokinin A, mean of several experiments
T3 construct: expressed in transfected cells; host or cells: HSKR-1 cells (mouse 3T3 fibroblasts)
T3 sequence (P21452 1-398): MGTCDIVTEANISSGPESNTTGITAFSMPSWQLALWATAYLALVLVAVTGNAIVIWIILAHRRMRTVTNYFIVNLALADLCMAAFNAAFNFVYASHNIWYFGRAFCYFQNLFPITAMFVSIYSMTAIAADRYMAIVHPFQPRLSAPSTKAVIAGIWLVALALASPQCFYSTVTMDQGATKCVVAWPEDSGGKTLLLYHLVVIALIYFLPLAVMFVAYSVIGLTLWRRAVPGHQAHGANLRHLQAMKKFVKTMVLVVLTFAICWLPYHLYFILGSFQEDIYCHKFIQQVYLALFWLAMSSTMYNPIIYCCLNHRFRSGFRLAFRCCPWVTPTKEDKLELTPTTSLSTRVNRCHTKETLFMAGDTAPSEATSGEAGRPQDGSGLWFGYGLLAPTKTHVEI
Procedure: as §1, §2, §3

## COc1cc(C(=O)N2CCC(CCN3CCC(C(N)=O)(c4ccccc4)CC3)(c3ccc(Cl)c(Cl)c3)C2)cc(OC)c1OC (single isomer, unassigned; (-)) [Example 21, (-)-1-[2-[3-(3,4-dichlorophenyl)-1-(3,4,5-trimethoxy-benzoyl)-pyrrolidin-3-yl]-ethyl]-4-phenyl-piperidine-4-carboxylic acid amide]
NK-3 receptor
  IC50: 2300 nM
NK1 receptor
  IC50: 183 nM
[1]
  IC50: 760 nM
